Laboratory results: PubChem BioAssay AID248 (DTP/NCI, 2004)
Toxic doses and inconclusive results are not listed. Rule as the data show it: active = T/C of 150% or more; inactive = T/C below 125%.

System: L1210 leukemia ip in BDF1 mice, survival T/C
Assay: NCI In Vivo Anticancer Drug Screen. Data for tumor model L1210 Leukemia (intraperitoneal) in B6D2F1 (BDF1) mice
Conditions: endpoint: mean survival time, vehicle: saline, higher = longer survival
Method in brief: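 Each compound was tested against a transplantable tumor grown in mice. The endpoint was survival, with treated animals benchmarked against vehicle controls as a simple ratio.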

Measured: T/C

Nc1ccc2c(c1)C(=O)c1ccccc1C2=O
inactive: dose: 50.0 mg/kg/injection, schedule: Q01DX001 (ip) 98 % of control | dose: 100.0 mg/kg/injection, schedule: Q01DX001 (ip) 102 % of control | dose: 100.0 mg/kg/injection, schedule: Q01DX009 (ip) 92 % of control | dose: 100.0 mg/kg/injection, schedule: Q04DX002 (ip) 100 % of control | dose: 200.0 mg/kg/injection, schedule: Q01DX001 (ip) 102 % of control | dose: 200.0 mg/kg/injection, schedule: Q01DX009 (ip) 92 % of control | dose: 200.0 mg/kg/injection, schedule: Q04DX002 (ip) 93 % of control | dose: 400.0 mg/kg/injection, schedule: Q01DX001 (ip) 102 % of control | dose: 400.0 mg/kg/injection, schedule: Q01DX009 (ip) 92 % of control | dose: 400.0 mg/kg/injection, schedule: Q04DX002 (ip) 93 % of control
